Measurements published in ChEMBL document CHEMBL1201862, “PubChem BioAssay data set” (2004).
Activity calls are given as the source filed them.

Legend:
[1] = biological target: G-protein coupled receptor 55 (Homo sapiens, UniProt Q9Y2T6); assay: GPR55 agonists via beta-arrestin recruitment, primary screen, imaging, U2OS cells, beta-arrestin-GFP redistribution (AID 1961); type: functional
[2] = biological target: Glyceraldehyde-3-phosphate dehydrogenase (Homo sapiens, UniProt P04406)
[3] = biological target: Alkaline phosphatase, placental type (Homo sapiens, UniProt P05187); assay: PLAP enzyme inhibitors, confirmation, biochemical, luminescence (AID 1512); type: functional
[4] = biological target: T1, Alkaline phosphatase, tissue-nonspecific isozyme (Homo sapiens, UniProt P05186); assay: human TNAP enzyme inhibitors, SAR follow-up, biochemical, luminescent, dose response (AID 1056)
T1 sequence (P05186 whole entry): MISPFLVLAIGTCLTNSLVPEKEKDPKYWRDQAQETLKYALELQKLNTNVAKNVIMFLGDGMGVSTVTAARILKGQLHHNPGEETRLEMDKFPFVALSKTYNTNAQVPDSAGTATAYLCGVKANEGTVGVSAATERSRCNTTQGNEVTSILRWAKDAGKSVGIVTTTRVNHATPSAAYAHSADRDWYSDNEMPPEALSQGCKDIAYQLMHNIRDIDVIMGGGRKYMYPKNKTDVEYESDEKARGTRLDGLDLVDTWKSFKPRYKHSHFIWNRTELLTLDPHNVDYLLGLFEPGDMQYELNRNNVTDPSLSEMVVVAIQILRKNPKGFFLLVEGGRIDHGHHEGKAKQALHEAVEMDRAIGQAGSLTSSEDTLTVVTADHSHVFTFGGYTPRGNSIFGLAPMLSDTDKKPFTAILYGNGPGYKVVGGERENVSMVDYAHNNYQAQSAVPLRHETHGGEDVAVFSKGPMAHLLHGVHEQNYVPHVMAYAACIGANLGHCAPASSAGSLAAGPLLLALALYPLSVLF

[5] = Luminescence Cell-Based Dose Response HTS to Identify Activators of Luciferase Translation or Activity in H4 […] Cells. [Related pubchem assays: 1829 (Project Summary), 1814 (Primary HTS)]; type: functional
H4 = assay: Luminescence Cell-Based Dose Response HTS to Identify Activators of 5'UTR Stem-Loop Driven Prion Protein mRNA Translation in H4 Neuroglioblastoma Cells. [Related pubchem assays: 1829 (Project Summary), 1814 (Primary HTS)]; type: functional; conditions: Homo sapiens
[6] = biological target: Intestinal-type alkaline phosphatase (Homo sapiens, UniProt P09923); assay: human intestinal alkaline phosphatase activators, dose response, biochemical, luminescence, uHTS hits (AID 463120); type: functional
[7] = Luminescence Cell-Based Dose Confirmation HTS to Identify Activators of 5'UTR Stem-Loop Driven Alpha-Synuclein mRNA Translation in H4 Neuroglioblastoma Cells. [Related pubchem assays: 1829 (Project Summary), 1814 (Primary HTS)]; type: functional
CAAX prenyl protease 2 = biological target: T2, CAAX prenyl protease 2 (Saccharomyces cerevisiae S288c, UniProt Q03530); type: biochemical
T2 sequence (Q03530 whole entry): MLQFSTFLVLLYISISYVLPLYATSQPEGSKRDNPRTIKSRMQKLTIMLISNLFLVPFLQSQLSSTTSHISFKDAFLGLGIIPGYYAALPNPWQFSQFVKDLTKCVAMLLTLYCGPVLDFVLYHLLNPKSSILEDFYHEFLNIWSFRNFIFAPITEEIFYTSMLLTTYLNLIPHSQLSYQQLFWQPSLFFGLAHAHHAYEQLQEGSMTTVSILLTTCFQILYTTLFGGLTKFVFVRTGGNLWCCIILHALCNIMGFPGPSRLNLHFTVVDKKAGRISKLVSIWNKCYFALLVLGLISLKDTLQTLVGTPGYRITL

[8] = biological target: E3 ubiquitin-protein ligase XIAP (Homo sapiens, UniProt P98170); assay: Counter Screen using XIAP-Bir3 for Chemical Antagonists of Bir1/2 domains of IAP-family anti-apoptotic proteins. [Related pubchem assays (depositor defined):AID1018, AID1449, AID1514, AID1638, AID1749, AID1750, AID488957, AID488963]
[9] = biological target: T3, Polyadenylate-binding protein 1 (Homo sapiens, UniProt P11940); assay: PABP1 MLLE–PAM2 interaction inhibitors, dose response, miRNA deadenylation inhibitor project, biochemical, fluorescence polarization, Cy5-PAM2 peptide, secondary (AID 602260); type: functional; conditions: read-out: IC50_Mean
[10] = biological target: T3, Polyadenylate-binding protein 1; assay: PABP1 MLLE–PAM2 binding inhibitor potency, dose response, biochemical, fluorescence polarization, FITC-PAM2 peptide (AID 602259); type: functional; conditions: read-out: IC50_Mean
[11] = biological target: DNA dC->dU-editing enzyme APOBEC-3G (Homo sapiens, UniProt Q9HC16); assay: Dose Response confirmation of small molecule APOBEC3G DNA Deaminase Inhibitors via a fluorescence-based single-stranded DNA deaminase assay. [Related pubchem assays (depositor defined):AID493012, AID493028]; type: functional
[12] = biological target: DNA dC->dU-editing enzyme APOBEC-3A (Homo sapiens, UniProt P31941); assay: APOBEC3A DNA deaminase inhibitors, dose response, biochemical (AID 504722); type: functional
[13] = THP-1 cell cytotoxicity, dose response, cytotoxicity control for non-replicating M. tuberculosis project (AID 489025); type: functional
[14] = microbe, parasite or virus in culture; type: functional; conditions: Mycobacterium tuberculosis
[15] = Vero E6 cell cytotoxicity, dose response, cytotoxicity control for non-replicating M. tuberculosis project, secondary assay (AID 492998); type: functional, VeroE6; conditions: Vero C1008
cells = type: functional
Bcl-2-related protein A1 = biological target: T4, Bcl-2-related protein A1 (Mus musculus, UniProt Q07440); type: functional;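 further: confirmatory dose–response counterscreen on Bfl-1, used to check hits from a UBC13 polyubiquitin inhibitor campaign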
T4 sequence (Q07440 whole entry): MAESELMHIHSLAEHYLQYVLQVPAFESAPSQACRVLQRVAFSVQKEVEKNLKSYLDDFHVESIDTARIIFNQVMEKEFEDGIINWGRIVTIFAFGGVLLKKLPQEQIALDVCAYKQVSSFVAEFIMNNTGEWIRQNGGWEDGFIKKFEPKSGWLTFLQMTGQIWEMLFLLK

[16] = biological target: T5, Ubiquitin-conjugating enzyme E2 N (Homo sapiens, UniProt P61088); type: functional
T5 sequence (P61088 whole entry): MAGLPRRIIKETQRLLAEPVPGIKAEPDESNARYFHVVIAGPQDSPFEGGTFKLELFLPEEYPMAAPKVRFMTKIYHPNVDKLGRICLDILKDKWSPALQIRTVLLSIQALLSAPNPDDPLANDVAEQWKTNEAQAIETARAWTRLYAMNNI

[17] = biological target: T5, Ubiquitin-conjugating enzyme E2 N; type: functional; remark: listed apart in the source
[18] = biological target: T6, Sphingosine 1-phosphate receptor 4 (Homo sapiens, UniProt O95977); assay: Late-stage fluorescence dose response cell-based assay to identify agonists of the Sphingosine 1-Phosphate Receptor 4 (S1P4): purchased compounds EC50. [Related pubchem assays (depositor defined):AID1509, AID1523, AID1563, AID1686, AID1701, AID1801]; type: functional
T6 sequence (O95977 whole entry): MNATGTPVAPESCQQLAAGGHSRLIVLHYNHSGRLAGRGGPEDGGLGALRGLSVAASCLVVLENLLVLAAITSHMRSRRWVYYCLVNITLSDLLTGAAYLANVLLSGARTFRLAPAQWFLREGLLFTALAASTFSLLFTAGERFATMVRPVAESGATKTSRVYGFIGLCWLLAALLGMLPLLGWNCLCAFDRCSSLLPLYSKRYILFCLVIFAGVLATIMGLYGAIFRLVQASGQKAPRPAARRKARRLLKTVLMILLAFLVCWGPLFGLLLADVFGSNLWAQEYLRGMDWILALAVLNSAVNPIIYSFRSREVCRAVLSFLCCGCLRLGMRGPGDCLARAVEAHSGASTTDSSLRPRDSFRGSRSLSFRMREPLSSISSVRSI

Hexokinase = biological target: T7, Hexokinase (Trypanosoma brucei, UniProt Q38C41); assay: Confirmation assay for inhibitors of Trypanosoma brucei hexokinase 1-Analogue-first series. [Related pubchem assays (depositor defined):AID1430, AID1632, AID2516, AID2560, AID2579, AID2600, AID449725, AID492951]; type: functional
T7 sequence (Q38C41 whole entry): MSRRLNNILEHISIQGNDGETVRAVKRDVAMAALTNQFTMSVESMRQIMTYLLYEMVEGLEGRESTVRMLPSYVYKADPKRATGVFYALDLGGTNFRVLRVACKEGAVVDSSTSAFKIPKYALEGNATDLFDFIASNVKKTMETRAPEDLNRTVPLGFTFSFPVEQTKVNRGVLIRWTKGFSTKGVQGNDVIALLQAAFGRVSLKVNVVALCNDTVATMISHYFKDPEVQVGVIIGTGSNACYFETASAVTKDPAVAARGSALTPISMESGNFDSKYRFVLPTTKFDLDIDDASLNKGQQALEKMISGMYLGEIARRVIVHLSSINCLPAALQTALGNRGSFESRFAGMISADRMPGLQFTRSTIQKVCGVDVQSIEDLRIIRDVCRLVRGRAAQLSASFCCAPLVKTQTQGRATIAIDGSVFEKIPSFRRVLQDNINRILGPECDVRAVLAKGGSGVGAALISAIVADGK

Sequence of DNA dC->dU-editing enzyme APOBEC-3A (P31941 whole entry): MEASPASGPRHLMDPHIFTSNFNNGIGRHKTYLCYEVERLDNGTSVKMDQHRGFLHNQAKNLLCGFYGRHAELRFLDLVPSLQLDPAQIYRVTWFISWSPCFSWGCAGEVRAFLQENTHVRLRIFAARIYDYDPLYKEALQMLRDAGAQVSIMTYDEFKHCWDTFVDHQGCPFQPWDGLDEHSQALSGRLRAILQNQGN
Sequence of DNA dC->dU-editing enzyme APOBEC-3G (Q9HC16 whole entry): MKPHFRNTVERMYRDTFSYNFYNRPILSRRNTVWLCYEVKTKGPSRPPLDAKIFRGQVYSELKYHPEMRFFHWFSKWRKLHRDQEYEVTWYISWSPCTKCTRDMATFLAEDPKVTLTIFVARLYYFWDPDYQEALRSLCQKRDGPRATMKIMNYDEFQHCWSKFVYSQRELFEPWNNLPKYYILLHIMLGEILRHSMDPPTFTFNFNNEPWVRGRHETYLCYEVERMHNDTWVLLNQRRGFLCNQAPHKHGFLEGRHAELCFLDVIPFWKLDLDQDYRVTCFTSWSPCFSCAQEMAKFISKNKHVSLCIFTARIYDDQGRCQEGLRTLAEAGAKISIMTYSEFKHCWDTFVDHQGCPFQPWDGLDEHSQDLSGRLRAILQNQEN
Sequence of Glyceraldehyde-3-phosphate dehydrogenase (P04406 whole entry): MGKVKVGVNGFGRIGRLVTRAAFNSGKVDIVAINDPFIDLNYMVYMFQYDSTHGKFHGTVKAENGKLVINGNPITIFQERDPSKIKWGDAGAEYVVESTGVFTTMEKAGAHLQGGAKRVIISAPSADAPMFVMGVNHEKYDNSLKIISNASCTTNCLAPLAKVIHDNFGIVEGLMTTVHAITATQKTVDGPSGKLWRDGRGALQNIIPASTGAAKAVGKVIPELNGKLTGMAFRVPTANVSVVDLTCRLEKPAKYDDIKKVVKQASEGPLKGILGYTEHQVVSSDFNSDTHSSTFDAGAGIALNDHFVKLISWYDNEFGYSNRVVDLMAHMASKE
Sequence of Alkaline phosphatase, placental type (P05187 whole entry): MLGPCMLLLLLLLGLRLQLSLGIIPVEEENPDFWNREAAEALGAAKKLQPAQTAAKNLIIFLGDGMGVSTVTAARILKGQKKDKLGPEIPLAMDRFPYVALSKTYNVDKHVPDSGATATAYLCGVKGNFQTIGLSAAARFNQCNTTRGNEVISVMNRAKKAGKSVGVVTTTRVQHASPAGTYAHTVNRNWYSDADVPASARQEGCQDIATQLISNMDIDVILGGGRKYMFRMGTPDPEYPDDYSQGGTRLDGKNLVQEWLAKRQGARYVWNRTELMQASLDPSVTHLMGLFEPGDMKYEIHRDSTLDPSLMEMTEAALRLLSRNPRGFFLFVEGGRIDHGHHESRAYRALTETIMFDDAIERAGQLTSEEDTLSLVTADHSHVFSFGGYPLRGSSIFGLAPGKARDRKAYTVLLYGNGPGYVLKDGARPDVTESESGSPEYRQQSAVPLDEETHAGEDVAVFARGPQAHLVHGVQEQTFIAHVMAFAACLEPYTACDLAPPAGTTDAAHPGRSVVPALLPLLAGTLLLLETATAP
Sequence of G-protein coupled receptor 55 (Q9Y2T6 whole entry): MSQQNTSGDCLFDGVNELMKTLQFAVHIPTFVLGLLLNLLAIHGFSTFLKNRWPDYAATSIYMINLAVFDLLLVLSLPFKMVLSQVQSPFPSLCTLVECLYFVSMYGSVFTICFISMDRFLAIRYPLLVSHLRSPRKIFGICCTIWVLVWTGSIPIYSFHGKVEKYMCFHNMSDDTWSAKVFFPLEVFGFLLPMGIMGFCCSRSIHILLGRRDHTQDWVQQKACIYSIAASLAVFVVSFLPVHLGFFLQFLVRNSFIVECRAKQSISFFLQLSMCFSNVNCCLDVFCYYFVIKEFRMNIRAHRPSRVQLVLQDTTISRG
T3 sequence (P11940 whole entry): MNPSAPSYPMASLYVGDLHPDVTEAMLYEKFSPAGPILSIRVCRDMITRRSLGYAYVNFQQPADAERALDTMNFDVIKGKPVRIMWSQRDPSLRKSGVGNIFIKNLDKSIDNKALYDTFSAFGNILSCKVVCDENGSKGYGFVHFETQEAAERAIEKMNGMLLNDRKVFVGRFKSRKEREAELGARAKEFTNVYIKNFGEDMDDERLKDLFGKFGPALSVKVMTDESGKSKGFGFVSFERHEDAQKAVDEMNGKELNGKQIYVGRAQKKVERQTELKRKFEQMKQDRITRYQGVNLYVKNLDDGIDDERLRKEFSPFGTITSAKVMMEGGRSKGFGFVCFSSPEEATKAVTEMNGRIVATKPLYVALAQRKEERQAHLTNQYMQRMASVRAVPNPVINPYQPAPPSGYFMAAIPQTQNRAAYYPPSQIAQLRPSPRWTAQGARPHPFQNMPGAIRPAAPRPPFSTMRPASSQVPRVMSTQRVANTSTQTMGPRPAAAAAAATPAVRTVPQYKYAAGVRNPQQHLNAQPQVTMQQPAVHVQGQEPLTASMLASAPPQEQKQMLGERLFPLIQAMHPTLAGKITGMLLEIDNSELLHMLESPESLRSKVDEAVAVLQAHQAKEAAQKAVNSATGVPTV
Sequence of E3 ubiquitin-protein ligase XIAP (P98170 whole entry): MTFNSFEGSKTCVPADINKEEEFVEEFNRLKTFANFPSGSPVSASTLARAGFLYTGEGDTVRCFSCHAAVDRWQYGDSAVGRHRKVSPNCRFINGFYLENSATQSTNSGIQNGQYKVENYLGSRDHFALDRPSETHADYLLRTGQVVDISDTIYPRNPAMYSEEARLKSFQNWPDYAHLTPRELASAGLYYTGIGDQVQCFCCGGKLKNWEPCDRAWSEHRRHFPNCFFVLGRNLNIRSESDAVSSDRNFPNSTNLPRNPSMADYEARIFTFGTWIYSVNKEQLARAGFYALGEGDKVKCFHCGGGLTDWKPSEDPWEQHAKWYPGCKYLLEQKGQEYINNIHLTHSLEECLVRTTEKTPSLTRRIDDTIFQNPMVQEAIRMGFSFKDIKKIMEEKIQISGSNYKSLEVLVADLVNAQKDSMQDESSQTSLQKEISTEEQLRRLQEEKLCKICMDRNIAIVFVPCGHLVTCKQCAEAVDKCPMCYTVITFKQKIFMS
Sequence of Intestinal-type alkaline phosphatase (P09923 whole entry): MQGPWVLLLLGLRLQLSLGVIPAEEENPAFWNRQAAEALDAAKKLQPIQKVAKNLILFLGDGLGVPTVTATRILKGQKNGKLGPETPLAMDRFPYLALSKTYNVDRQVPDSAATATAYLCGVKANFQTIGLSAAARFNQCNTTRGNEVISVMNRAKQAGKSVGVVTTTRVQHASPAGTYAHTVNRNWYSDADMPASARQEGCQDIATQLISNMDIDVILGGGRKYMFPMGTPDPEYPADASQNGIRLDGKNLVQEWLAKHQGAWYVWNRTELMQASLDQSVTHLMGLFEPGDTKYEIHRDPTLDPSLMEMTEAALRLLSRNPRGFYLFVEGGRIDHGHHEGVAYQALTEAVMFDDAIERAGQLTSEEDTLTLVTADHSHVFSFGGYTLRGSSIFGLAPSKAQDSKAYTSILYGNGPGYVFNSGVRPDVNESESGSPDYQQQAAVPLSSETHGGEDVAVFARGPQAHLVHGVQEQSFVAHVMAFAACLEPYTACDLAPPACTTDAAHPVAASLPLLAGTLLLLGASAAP

With `Nc1ccc(Oc2ccc3nc(-c4ccccc4)c(-c4ccccc4)nc3c2)cc1` the EC50 [1] was 1.91 µM (active).

With `Cn1ncc2c1ncn1c(-c3ccccc3)nnc21` the IC50 [2] was > 100 µM (not active), the IC50 [3] was > 100 µM (inactive) and the IC50 [4] was > 100 µM (inactive).

For `Cc1ccc(S(=O)(=O)Nc2nc3ccccc3nc2NCc2ccco2)cc1`, the EC50 [5] was 10.8 µM (active), the EC50 (H4) was 7.32 µM (active) and the EC50 [6] was > 100 µM (inactive). For the same compound, the EC50 [7] was 8.02 µM (active).

In the case of `COc1ccc(-c2[nH]nc(-c3ccccc3)c2-c2nc3ccccc3[nH]2)cc1`, the IC50 [2] is reported as 81.2 µM (active), the IC50 [3] is reported as > 100 µM (inactive) and the IC50 [4] is reported as > 100 µM (inactive).

With `CCOC(=O)C1CCCN(C(=O)CCn2nnnc2CN2CCOCC2)C1` (stereo not given) the AC50 (CAAX prenyl protease 2) was 27.9 µM (active).

For `COc1cc(NS(=O)(=O)c2ccc(NC(=S)NC(=O)/C=C/c3ccc(F)cc3)cc2)ncn1`, the IC50 [8] was > 20 µM (inactive), the IC50 [9] was > 66 µM (inactive) and the IC50 [10] was > 66 µM (inactive).

In the case of `Cc1nc(-c2ccccc2)sc1-c1n[nH]c(=S)n1C`, the IC50 [11] is reported as 4.9 µM (active) and the IC50 [12] is reported as > 100 µM (inactive).

For `CC(C)CSc1nnc(S)s1`, the IC50 [11] was 3.32 µM (active) and the IC50 [12] was > 100 µM (inactive).

For `O=c1c2ccccc2cnn1Cc1nnc(S)n1-c1ccc(Cl)cc1`, the IC50 [11] was 5.01 µM (active) and the IC50 [12] was > 100 µM (inactive).

For `COc1ccccc1-c1nnc(SCC(=O)Nc2ccccc2[N+](=O)[O-])[nH]1`, the IC50 [2] was > 100 µM (not active), the IC50 [3] was > 100 µM (inactive) and the IC50 [4] was 13.3 µM (active).

In the case of `COc1ccccc1CC(=O)Nc1ccc2c(c1)C(=O)NC2=O`, the EC50 [1] is reported as 14.9 µM (inactive).

For `CNC(C)C#Cc1ccc2oc3cc(C)c(C)cc3c(=O)c2c1` (stereo not given), the CC50 [13] was 22.2 µM (active), the CC50 [14] was 29 µM (active) and the CC50 [15] was > 20 µM (active). The IC50 (cells) was 11.8 µM (active).

In the case of `O=C(NNC(=O)c1nn(-c2ccc(F)cc2)ccc1=O)c1ccc(Cl)cc1`, the IC50 (Bcl-2-related protein A1) is reported as > 20 µM (inactive), the IC50 [16] is reported as 18.9 µM (active) and the IC50 [17] is reported as 19.8 µM (active).

In the case of `Cc1ccc(OCc2cccc(COc3ccc(C)nc3[N+](=O)[O-])c2)c([N+](=O)[O-])n1`, the EC50 [18] is reported as > 50 µM (inactive).

With `COc1ccc(C(=O)NC(CC(=O)O)c2ccc(Cl)cc2)cc1` (stereo not given) the IC50 (Hexokinase) was > 25 µM (inactive).

With `Cc1ccc(OCC(=O)N(C)CCOc2ccc(Cl)cc2)c([N+](=O)[O-])n1` the EC50 [18] was > 50 µM (inactive).

With `Cc1ccc(OCc2c(Cl)cccc2Cl)c([N+](=O)[O-])n1` the EC50 [18] was > 50 µM (inactive).

In the case of `COc1ccc(C(=O)Nc2cc(C(=O)O)ccc2Cl)cc1`, the IC50 (Hexokinase) is reported as > 25 µM (inactive).

In the case of `C#CCOCCOCCOCCNc1nc(N2CCN(C(=O)[C@H](CCCN=C(N)N)n3cc(C(N)[C@@H](C)CC)nn3)CC2)nc(N2CCN(C(=O)[C@H](CCCCN)n3cc([C@@H](N)[C@H](C)CC)nn3)CC2)n1` (stereo not given in full), the IC50 (Bcl-2-related protein A1) is reported as > 20 µM (inactive), the IC50 [16] is reported as 15.2 µM (active) and the IC50 [17] is reported as 18.4 µM (active).
